The nature of data set [1]: Chiral stability at pH 7.4 (enantiomeric excess by Chiral SFC after incubation). The data set is classed as physicochemical. As to conditions: buffered solution pH 7.4, 5 μM. The procedure:
The chiral stability of Enantiomer 10B (R=OMe) was evaluated by determination of the enantiomeric excess (ee %) after incubation for 24 h and 48 h in a buffered solution at pH 7.4 at 40° C. and 60° C. To assess the influence of the methoxy-substituent of Enantiomer 10B (R=OMe) on the stability against racemization, the chiral stability of Enantiomer 10′B (R=H) was tested under the same conditions. To this end, 5 μM buffered (pH=7.4) solutions of 10B and 10′B were prepared by mixing 25 μL of a 100 μM solution of 10B and 10′B in DMSO with 475 μL aqueous buffer pH 7.4. Samples were taken 24 h and 48 h after incubation at 40° C. and 60° C. The analytical samples were analyzed by Chiral SFC (MS detection) and the chiral purity was expressed as the enantiomeric excess (ee %=% enantiomer B−% enantiomer A).

The next data set has as its system DENV-4 strains H241. The data set is described as follows: Tetravalent RT-qPCR assay Protocol A, serotype 4. The data set is classed as cell-based. Particulars: Dengue virus, DENV4, 72 h; RT-qPCR serotype 4 H241, Vero cells, day 3. (In general: In qPCR the cycle at which signal appears reflects the starting amount.)

Molecules are shown by their SMILES. pEC50: −log10 of the molar value.

Broadly, the pEC50 is −log10 of the EC50, conventionally taken in molar units. Consider `COc1cc(NC(C(=O)c2c[nH]c3cc(OC)c(C)cc23)c2ccc(F)cc2OC)cc(S(C)(=O)=O)c1` (single isomer, unassigned) [Enantiomer 10B, 2-(4-fluoro-2-methoxyphenyl)-2-((3-methoxy-5-(methylsulfonyl)phenyl)amino)-1-(6-methoxy-5-methyl-1H-indol-3-yl)ethanone], for which the ee % is listed as 100% in data set [1] (40° C., 24 h); 100% in data set [1] (40° C., 48 h); 97% in data set [1] (60° C., 24 h); 97% in data set [1] (60° C., 48 h). The pEC50 with DENV-4 strains H241 is 6.96.

Values taken from patent US10029984B2, “Mono- or di-substituted indole derivatives as dengue viral replication inhibitors” (Janssen Pharmaceuticals, Inc., priority 2015, dated 2018).
